Experiments:
Assay in all cases: Kinase inhibitor library screening, PrestoBlue cell viability, 1 or 10 μM, 72 h
IGR37 cells (parental) = system: IGR37 cells (parental)
[1] = system: 501Mel-XP cells (Vemurafenib-resistant)
[2] = system: IGR37-GP cells (Dabrafenib-resistant)
[3] = system: A375-XP cells (Vemurafenib-resistant)
A375 cells (parental) = system: A375 cells (parental)
[4] = system: IGR37-XP cells (Vemurafenib-resistant)
501Mel cells (parental) = system: 501Mel cells (parental)
Method in brief: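 Normalised to untreated controls, viability percentages came from PrestoBlue measured on a microplate reader following 72 h incubation with drug. Each line was assayed at least twice.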

[5] = system: A375-GP cells (Dabrafenib-resistant)
[6] = system: 501Mel-GP cells (Dabrafenib-resistant)
[7] = IGR37 Parental, 10μΜ, 72 h, in %
[8] = 501Mel Parental, 1μΜ, 72 h, in %
[9] = 501Mel Parental, 10μΜ, 72 h, in %
[10] = IGR37 Parental, 1μΜ, 72 h, in %

## C=CC(=O)Nc1cccc(Oc2nc(Nc3ccc(N4CCN(C)CC4)cc3OC)ncc2Cl)c1 [WZ4002]
IGR37 cells (parental); Homo sapiens, IGR-37, 72 h, read-out: cell viability, IGR37 Parental, 1μΜ
  viability at 1 µM: 101%
IGR37 cells (parental); Homo sapiens, IGR-37, 72 h, read-out: cell viability, IGR37 Parental, 10μΜ
  viability at 10 µM: 2%
[1]; Homo sapiens, 72 h, read-out: cell viability, 501Mel XP, 1μΜ
  viability at 1 µM: 104%
[1]; Homo sapiens, 72 h, read-out: cell viability, 501Mel XP, 10μΜ
  viability at 10 µM: -0.3%
[2]; Homo sapiens, IGR-37, 72 h, read-out: cell viability, IGR37 GP, 1μΜ
  viability at 1 µM: 91.8%
[2]; Homo sapiens, IGR-37, 72 h, read-out: cell viability, IGR37 GP, 10μΜ
  viability at 10 µM: 16.7%
[3]; Homo sapiens, A-375, 72 h, read-out: cell viability, A375 XP, 1μΜ
  viability at 1 µM: 104%
[3]; Homo sapiens, A-375, 72 h, read-out: cell viability, A375 XP, 10μΜ
  viability at 10 µM: 6%
A375 cells (parental); Homo sapiens, A-375, 72 h, read-out: cell viability, A375 Parental, 1μΜ
  viability at 1 µM: 103%
A375 cells (parental); Homo sapiens, A-375, 72 h, read-out: cell viability, A375 Parental, 10μΜ
  viability at 10 µM: 23.8%
[4]; Homo sapiens, IGR-37, 72 h, read-out: cell viability, IGR37 XP, 1μΜ
  viability at 1 µM: 85.2%
[4]; Homo sapiens, IGR-37, 72 h, read-out: cell viability, IGR37 XP, 10μΜ
  viability at 10 µM: 1.4%
501Mel cells (parental); Homo sapiens, 72 h, read-out: cell viability, 501Mel Parental, 1μΜ
  viability at 1 µM: 107%
501Mel cells (parental); Homo sapiens, 72 h, read-out: cell viability, 501Mel Parental, 10μΜ
  viability at 10 µM: -0.0492%
[5]; Homo sapiens, A-375, 72 h, read-out: cell viability, A375 GP, 1μΜ
  viability at 1 µM: 96.3%
[5]; Homo sapiens, A-375, 72 h, read-out: cell viability, A375 GP, 10μΜ
  viability at 10 µM: 3.9%
[6]; Homo sapiens, 72 h, read-out: cell viability, 501Mel GP, 1μΜ
  viability at 1 µM: 109%
[6]; Homo sapiens, 72 h, read-out: cell viability, 501Mel GP, 10μΜ
  viability at 10 µM: -0.074%

## C=CC(=O)Nc1cccc(Sc2nc(Nc3ccc(N4CCN(C)CC4)cc3)ncc2Cl)c1 [WZ8040]
IGR37 cells (parental); [7]
  cell viability, IGR37 Parental, 10μΜ: 0.328
[1]; 501Mel XP, 1μΜ, 72 h, in %
  cell viability, 501Mel XP, 1μΜ: 96.4
[1]; 501Mel XP, 10μΜ, 72 h, in %
  cell viability, 501Mel XP, 10μΜ: 0.0442
[2]; IGR37 GP, 10μΜ, 72 h
  cell viability, IGR37 GP, 10μΜ: 2.1%
[2]; IGR37 GP, 1μΜ, 72 h, in %
  cell viability, IGR37 GP, 1μΜ: 90.2
[3]; A375 XP, 1μΜ, 72 h, in %
  cell viability, A375 XP, 1μΜ: 104.2
[3]; A375 XP, 10μΜ, 72 h, in %
  cell viability, A375 XP, 10μΜ: 0.5
A375 cells (parental); A375 Parental, 1μΜ, 72 h, in %
  cell viability, A375 Parental, 1μΜ: 97.5
A375 cells (parental); A375 Parental, 10μΜ, 72 h, in %
  cell viability, A375 Parental, 10μΜ: 1.4
[4]; IGR37 XP, 10μΜ, 72 h
  cell viability, IGR37 XP, 10μΜ: 1.2%
[4]; IGR37 XP, 1μΜ, 72 h, in %
  cell viability, IGR37 XP, 1μΜ: 79.2
501Mel cells (parental); [8]
  cell viability, 501Mel Parental, 1μΜ: 98.5
501Mel cells (parental); [9]
  cell viability, 501Mel Parental, 10μΜ: -0.212
[5]; A375 GP, 1μΜ, 72 h, in %
  cell viability, A375 GP, 1μΜ: 98.2
[5]; A375 GP, 10μΜ, 72 h, in %
  cell viability, A375 GP, 10μΜ: 1.6
[6]; 501Mel GP, 10μΜ, 72 h, in %
  cell viability, 501Mel GP, 10μΜ: 0.0662

## COC[C@H]1OC(=O)c2coc3c2[C@@]1(C)C1=C(C3=O)[C@@H]2CCC(=O)[C@@]2(C)C[C@H]1OC(C)=O [Wortmannin]
IGR37 cells (parental); [10]
  Cell viability in kinase inhibitor library screening, IGR37 Parental, 1μΜ: 99.5
IGR37 cells (parental); [7]
  Cell viability in kinase inhibitor library screening, IGR37 Parental, 10μΜ: 76.3
[1]; 501Mel XP, 1μΜ, 72 h, in %
  Cell viability in kinase inhibitor library screening, 501Mel XP, 1μΜ: 91.1
[1]; 501Mel XP, 10μΜ, 72 h, in %
  Cell viability in kinase inhibitor library screening, 501Mel XP, 10μΜ: 23.3
[2]; IGR37 GP, 10μΜ, 72 h
  Cell viability in kinase inhibitor library screening, IGR37 GP, 10μΜ: 22.9%
[2]; IGR37 GP, 1μΜ, 72 h, in %
  Cell viability in kinase inhibitor library screening, IGR37 GP, 1μΜ: 97.7
[3]; A375 XP, 10μΜ, 72 h
  Cell viability in kinase inhibitor library screening, A375 XP, 10μΜ: 67.6
A375 cells (parental); A375 Parental, 10μΜ, 72 h
  Cell viability in kinase inhibitor library screening, A375 Parental, 10μΜ: 77.1
A375 cells (parental); A375 Parental, 1μΜ, 72 h
  Cell viability in kinase inhibitor library screening, A375 Parental, 1μΜ: 109.1
[4]; IGR37 XP, 10μΜ, 72 h
  Cell viability in kinase inhibitor library screening, IGR37 XP, 10μΜ: 26.8%
[4]; IGR37 XP, 1μΜ, 72 h, in %
  Cell viability in kinase inhibitor library screening, IGR37 XP, 1μΜ: 96.4
501Mel cells (parental); [9]
  Cell viability in kinase inhibitor library screening, 501Mel Parental, 10μΜ: 57.2
[5]; A375 GP, 1μΜ, 72 h
  Cell viability in kinase inhibitor library screening, A375 GP, 1μΜ: 103.2
[5]; A375 GP, 10μΜ, 72 h
  Cell viability in kinase inhibitor library screening, A375 GP, 10μΜ: 72.0
[6]; 501Mel GP, 1μΜ, 72 h, in %
  Cell viability in kinase inhibitor library screening, 501Mel GP, 1μΜ: 95.9
[6]; 501Mel GP, 10μΜ, 72 h, in %
  Cell viability in kinase inhibitor library screening, 501Mel GP, 10μΜ: 51.6

## COc1ccc(Cl)c(Nc2nc3ccccc3nc2NS(=O)(=O)c2cccc(NC(=O)C(C)(C)N)c2)c1 [XL147]
IGR37 cells (parental); [7]
  Cell viability in kinase inhibitor library screening, IGR37 Parental, 10μΜ: 90.5
[1]; 501Mel XP, 1μΜ, 72 h, in %
  Cell viability in kinase inhibitor library screening, 501Mel XP, 1μΜ: 93.7
[1]; 501Mel XP, 10μΜ, 72 h, in %
  Cell viability in kinase inhibitor library screening, 501Mel XP, 10μΜ: 83.3
[2]; IGR37 GP, 10μΜ, 72 h
  Cell viability in kinase inhibitor library screening, IGR37 GP, 10μΜ: 88.3%
[2]; IGR37 GP, 1μΜ, 72 h, in %
  Cell viability in kinase inhibitor library screening, IGR37 GP, 1μΜ: 103.8
[3]; A375 XP, 1μΜ, 72 h
  Cell viability in kinase inhibitor library screening, A375 XP, 1μΜ: 100.4
[3]; A375 XP, 10μΜ, 72 h
  Cell viability in kinase inhibitor library screening, A375 XP, 10μΜ: 100.4
A375 cells (parental); A375 Parental, 10μΜ, 72 h
  Cell viability in kinase inhibitor library screening, A375 Parental, 10μΜ: 88.5
A375 cells (parental); A375 Parental, 1μΜ, 72 h
  Cell viability in kinase inhibitor library screening, A375 Parental, 1μΜ: 99.8
[4]; IGR37 XP, 10μΜ, 72 h
  Cell viability in kinase inhibitor library screening, IGR37 XP, 10μΜ: 62.4%
[4]; IGR37 XP, 1μΜ, 72 h, in %
  Cell viability in kinase inhibitor library screening, IGR37 XP, 1μΜ: 98.4
501Mel cells (parental); [8]
  Cell viability in kinase inhibitor library screening, 501Mel Parental, 1μΜ: 95.0
501Mel cells (parental); [9]
  Cell viability in kinase inhibitor library screening, 501Mel Parental, 10μΜ: 91.9
[5]; A375 GP, 1μΜ, 72 h
  Cell viability in kinase inhibitor library screening, A375 GP, 1μΜ: 91.5
[5]; A375 GP, 10μΜ, 72 h
  Cell viability in kinase inhibitor library screening, A375 GP, 10μΜ: 84.7
[6]; 501Mel GP, 10μΜ, 72 h, in %
  Cell viability in kinase inhibitor library screening, 501Mel GP, 10μΜ: 87.3

## CCn1c(=O)c(-c2cc[nH]n2)cc2c(C)nc(N)nc21 [XL765]
IGR37 cells (parental); [10]
  Cell viability in kinase inhibitor library screening, IGR37 Parental, 1μΜ: 100.4
IGR37 cells (parental); [7]
  Cell viability in kinase inhibitor library screening, IGR37 Parental, 10μΜ: 106.2
[1]; 501Mel XP, 1μΜ, 72 h, in %
  Cell viability in kinase inhibitor library screening, 501Mel XP, 1μΜ: 96.7
[1]; 501Mel XP, 10μΜ, 72 h, in %
  Cell viability in kinase inhibitor library screening, 501Mel XP, 10μΜ: 77.0
[2]; IGR37 GP, 10μΜ, 72 h
  Cell viability in kinase inhibitor library screening, IGR37 GP, 10μΜ: 96.8%
[2]; IGR37 GP, 1μΜ, 72 h, in %
  Cell viability in kinase inhibitor library screening, IGR37 GP, 1μΜ: 95.1
[3]; A375 XP, 1μΜ, 72 h
  Cell viability in kinase inhibitor library screening, A375 XP, 1μΜ: 106.1
A375 cells (parental); A375 Parental, 1μΜ, 72 h
  Cell viability in kinase inhibitor library screening, A375 Parental, 1μΜ: 105.9
[4]; IGR37 XP, 10μΜ, 72 h
  Cell viability in kinase inhibitor library screening, IGR37 XP, 10μΜ: 68.4%
501Mel cells (parental); [8]
  Cell viability in kinase inhibitor library screening, 501Mel Parental, 1μΜ: 93.5
501Mel cells (parental); [9]
  Cell viability in kinase inhibitor library screening, 501Mel Parental, 10μΜ: 98.4
[5]; A375 GP, 10μΜ, 72 h
  Cell viability in kinase inhibitor library screening, A375 GP, 10μΜ: 92.4
[6]; 501Mel GP, 1μΜ, 72 h, in %
  Cell viability in kinase inhibitor library screening, 501Mel GP, 1μΜ: 109.6
[6]; 501Mel GP, 10μΜ, 72 h, in %
  Cell viability in kinase inhibitor library screening, 501Mel GP, 10μΜ: 92.1

## COc1cc2nccc(Oc3ccc(NC(=O)C4(C(=O)Nc5ccc(F)cc5)CC4)cc3)c2cc1OC [XL-184 free base (Cabozantinib)]
IGR37 cells (parental); IGR37 Parental, 1μΜ, in %
  cell viability (kinase inhibitor library screening): 94.2
IGR37 cells (parental); IGR37 Parental, 10μΜ, in %
  cell viability (kinase inhibitor library screening): 42.6
[1]; 501Mel XP, 1μΜ, in %
  cell viability (kinase inhibitor library screening): 58.9
[1]; 501Mel XP, 10μΜ, in %
  cell viability (kinase inhibitor library screening): 24.9
[2]; IGR37 GP, 1μΜ, in %
  cell viability (kinase inhibitor library screening): 96.8
[2]; IGR37 GP, 10μΜ, in %
  cell viability (kinase inhibitor library screening): 14.8
[3]; A375 XP, 10μΜ, in %
  cell viability (kinase inhibitor library screening): 51.6
A375 cells (parental); A375 Parental, 1μΜ, in %
  cell viability (kinase inhibitor library screening): 98.4
A375 cells (parental); A375 Parental, 10μΜ, in %
  cell viability (kinase inhibitor library screening): 40.5
[4]; IGR37 XP, 1μΜ, in %
  cell viability (kinase inhibitor library screening): 90.6
[4]; IGR37 XP, 10μΜ, in %
  cell viability (kinase inhibitor library screening): 3.1
501Mel cells (parental); 501Mel Parental, 1μΜ, in %
  cell viability (kinase inhibitor library screening): 90.2
501Mel cells (parental); 501Mel Parental, 10μΜ, in %
  cell viability (kinase inhibitor library screening): 73.6
[5]; A375 GP, 1μΜ, in %
  cell viability (kinase inhibitor library screening): 97.8
[5]; A375 GP, 10μΜ, in %
  cell viability (kinase inhibitor library screening): 41.3
[6]; 501Mel GP, 1μΜ, in %
  cell viability (kinase inhibitor library screening): 76.7
[6]; 501Mel GP, 10μΜ, in %
  cell viability (kinase inhibitor library screening): 38.8
